Experimental data reported in patent publication US8076142B2, “Rooted plant assay system” (BASF Plant Sciences GmbH, priority 2006, dated 2011).

Test system: soybean explants
Assay: Auxin effect on transformation efficiency in soybean explants (disarmed A. rhizogenes, root induction and selection medium)
Format: cell-based
Details: for transformation efficiency compared to control with no auxin: cotyledons from William 82 as explants
Description: Clean soybean seeds from soybean cultivar were sterilized in a chamber with chlorine gas produced by adding 3.5 ml 12N HCl drop wise into 100 ml bleach. All operations were conducted in a fume hood. After 24 hours in the chamber, seeds were removed and used immediately or stored at room temperature until use. Discolored seeds or cracked seeds were removed. To imbibe seeds, warm GM medium was poured around seeds until the seeds were entirely covered by the medium. Seedlings were grown in the light for 5-7 days until the epicotyl was extended beyond the cotyledons. Seedlings can be stored at 4° C. overnight before being used in transformation. The Germination Medium (GM) comprises: 1×B5 salts and vitamins, 1×MS iron stock, 2% sucrose, and 0.8% Noble agar at pH 5.8. As an alternative, soybean seeds can be germinated in 1% agar (50 ml) in Petri dishes for 7 days before Agrobacterium inoculation.
Three days before inoculation, a disarmed Agrobacterium culture, for example, the disarmed A. rhizogenes strain K599 liquid culture, was placed in 5 ml LB+Kan50 (containing 50 ug/ml Kanamycin) media in a 28° C. shaker (225 rpm) overnight. The next day, 1 ml of the culture was taken and spread onto an LB+Kan50 agar plate. The plates were incubated in a 28° C. incubator for two days. At the end of the two-day period the plates were covered with thick colonies. One plate was prepared for every 50 explants to be inoculated.
Soybean seedlings had elongated hypocotyls approximately 3 to 5 cm in length with visible epicotyls. The explants were then prepared by removing the epicotyls and part of the hypocotyls. The explant contained one or two cotyledons, an axillary meristem and the hypocotyl about 0.5 cm to about 3 cm in length. The seed coat was removed to facilitate cotyledon development. The cut end of the hypocotyl was the target for transformation/infection.
Alternatively, cotyledons containing the proximal end from its connection with the seedlings were used as another type of explant for transformation. The cut end was the target for Agrobacterium inoculation.
After the explants were cut off the seedlings, the cut end was immediately dipped onto the disarmed thick A. rhizogenes colonies prepared above so that the colonies were visible on the cut end. Alternatively, the explants can be immersed in the disarmed A. rhizogenes liquid culture for 30 minutes. The explants were then placed onto 1% agar in Petri dishes for co-cultivation. Approximately 10 explants were placed in one dish. The dishes were sealed with Saran wrap and co-cultured at 25-27° C. under light for 6-8 days.
After the transformation and co-cultivation step, soybean explants were transferred to rooting induction medium with a selection agent, for example, S-B5-605 or S-B5-607 for Bar gene selection (De Block et al., EMBO J. 6:2513-2518, 1987), or S-B5-708 for an AHAS mutant gene (Sathasivan et al., Plant Phys. 97:1044-50, 1991) selection, in Petri dishes. The cut end was inserted into the medium so that the callus developed from the cut end in the future was just below the medium surface. Six to nine explants were placed in each Petri dish. Cultures were maintained in the same condition as in the co-cultivation step.
The S-B5-605 medium comprises: 0.5×B5 salts, 3 mM MES, 2% sucrose, 1×B5 vitamins, 400 μg/ml Timentin, 0.8% Noble agar, 1 mg/1 IBA and 3 μg/ml Glufosinate Ammonion (selection agent for Bar gene) at pH 5.8. The S-MS-607 medium comprises: 0.2×MS salts and B5 vitamins, 2% sucrose, 400 mg/l Timentin, and 3 mg/L Glufosinate Ammonium at pH5.8. The S-B5-708 medium comprises: 0.5×B5 salts, 3 mM MES, 2% sucrose, 1×B5 vitamins, 400 μg/ml Timentin, 0.8% Noble agar, and 1 μM Imazapyr (selection agent for AHAS gene) (BASF Corporation, Florham Park, N.J.) at pH5.8.
Two to three weeks after the selection and root induction, transformed roots were formed on the cut ends of the explants. […]

| SMILES | transgenic roots obtained from hypocotyl explants (control, 0-1 mg/l IBA in the rooting induction and selection medium) | transformation efficiency compared to control with no auxin (3 mg/l IBA) | transformation efficiency (high concentration of IBA, 3 to 5 mg/l, in the medium) | transformation efficiency (soybean hypocotyl and cotyledon explants, medium with 1 mg/l IBA compared to no auxin) | transformation efficiency (NAA 1 mg/l in the medium) | transformation efficiency compared to control with no auxin (1 mg/l NAA) | transgenic roots obtained from hypocotyl explants (infected explants cultured and selected in medium containing 1 mg/l NAA) |
| --- | --- | --- | --- | --- | --- | --- | --- |
| O=C(O)CCCc1c[nH]c2ccccc12 [IBA, indole-3-butyric acid] | 1-5 | doubled | dramatically increased | similar | – | – | – |
| O=C(O)Cc1cccc2ccccc12 [NAA, napthalene acetic acid] | – | – | – | – | dramatically increased | doubled | more than 20 |
